Common to all, as to assay type: biochemical
The target of one assay is JAK1 (Homo sapiens (Human), UniProt P23458). As to the kind of experiment: JAK/TYK2 assay (Kinase Glo luminescence), JAK1. Particulars: 7.5 nM enzyme, 2 uM ATP, 30 uM IRS-1, 1 hr. In short, it runs like this:
(§1)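 Compound in DMSO was combined with 2× enzyme, then 2× substrate mixture started the reaction, which proceeded for 1-2 hours at 25° C. Kinase Glo reagent was added to stop it and produce luminescence. Wells lacking compound served as the positive control.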

The target of the next assay is JAK2 (Homo sapiens (Human), UniProt O60674). As to the kind of experiment: JAK/TYK2 assay (Kinase Glo luminescence), JAK2. The note with it: 0.8 nM enzyme, 2 uM ATP, 4 uM pEY, 1 hr. In short, it runs like this:
as §1
A general note: Kinase-Glo measures the ATP left after a reaction by luminescence.

In another assay the target is JAK3 (Homo sapiens (Human), UniProt P52333). Put plainly: JAK/TYK2 assay (Kinase Glo luminescence), JAK3. The note with it: 1.5 nM enzyme, 2 uM ATP, 4 uM pEY, 1 hr. In a few lines: as §1
Another assay has as its target TYK2 (Homo sapiens (Human), UniProt P29597). Put plainly: JAK/TYK2 assay (Kinase Glo luminescence), TYK2. The note with it: 9 nM enzyme, 2 uM ATP, 30 uM IRS-1, 1 hr. In a few lines: as §1

Experimental findings from patent US11136329B2, “JAK inhibitors” (Vimalan Biosciences, Inc., priority 2019, dated 2021) are described below.

Sequence of TYK2 (P29597 whole entry, species assumed): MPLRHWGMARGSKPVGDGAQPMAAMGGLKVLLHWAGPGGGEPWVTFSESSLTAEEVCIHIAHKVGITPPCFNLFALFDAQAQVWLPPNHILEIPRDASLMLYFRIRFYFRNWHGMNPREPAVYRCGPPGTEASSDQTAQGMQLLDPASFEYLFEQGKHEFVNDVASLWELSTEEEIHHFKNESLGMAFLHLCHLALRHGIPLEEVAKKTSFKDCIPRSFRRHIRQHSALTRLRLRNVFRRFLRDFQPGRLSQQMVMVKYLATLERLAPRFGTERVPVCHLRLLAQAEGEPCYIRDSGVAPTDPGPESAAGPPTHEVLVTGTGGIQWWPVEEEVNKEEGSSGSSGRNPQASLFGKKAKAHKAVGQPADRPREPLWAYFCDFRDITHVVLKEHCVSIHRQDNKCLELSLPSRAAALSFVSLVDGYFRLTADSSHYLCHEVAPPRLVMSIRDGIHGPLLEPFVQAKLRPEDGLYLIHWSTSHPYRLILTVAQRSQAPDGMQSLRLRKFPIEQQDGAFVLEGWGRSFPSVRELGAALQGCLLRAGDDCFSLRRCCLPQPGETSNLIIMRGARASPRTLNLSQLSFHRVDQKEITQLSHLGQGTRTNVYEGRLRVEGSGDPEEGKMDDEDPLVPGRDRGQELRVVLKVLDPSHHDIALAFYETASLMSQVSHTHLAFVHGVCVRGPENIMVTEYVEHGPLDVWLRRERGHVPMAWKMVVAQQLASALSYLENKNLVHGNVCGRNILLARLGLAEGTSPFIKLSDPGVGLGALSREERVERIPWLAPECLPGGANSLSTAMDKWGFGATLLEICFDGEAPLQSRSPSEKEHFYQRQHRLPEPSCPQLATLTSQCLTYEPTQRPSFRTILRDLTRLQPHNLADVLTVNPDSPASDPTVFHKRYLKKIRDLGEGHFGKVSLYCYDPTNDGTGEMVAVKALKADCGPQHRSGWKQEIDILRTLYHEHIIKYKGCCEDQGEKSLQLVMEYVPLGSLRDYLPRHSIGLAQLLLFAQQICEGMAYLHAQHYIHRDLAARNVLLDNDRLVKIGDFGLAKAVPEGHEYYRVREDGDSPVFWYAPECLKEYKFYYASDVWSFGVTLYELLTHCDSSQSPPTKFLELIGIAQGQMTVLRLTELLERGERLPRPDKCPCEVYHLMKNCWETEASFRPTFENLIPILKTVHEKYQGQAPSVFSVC
Sequence of JAK1 (P23458 whole entry, species assumed): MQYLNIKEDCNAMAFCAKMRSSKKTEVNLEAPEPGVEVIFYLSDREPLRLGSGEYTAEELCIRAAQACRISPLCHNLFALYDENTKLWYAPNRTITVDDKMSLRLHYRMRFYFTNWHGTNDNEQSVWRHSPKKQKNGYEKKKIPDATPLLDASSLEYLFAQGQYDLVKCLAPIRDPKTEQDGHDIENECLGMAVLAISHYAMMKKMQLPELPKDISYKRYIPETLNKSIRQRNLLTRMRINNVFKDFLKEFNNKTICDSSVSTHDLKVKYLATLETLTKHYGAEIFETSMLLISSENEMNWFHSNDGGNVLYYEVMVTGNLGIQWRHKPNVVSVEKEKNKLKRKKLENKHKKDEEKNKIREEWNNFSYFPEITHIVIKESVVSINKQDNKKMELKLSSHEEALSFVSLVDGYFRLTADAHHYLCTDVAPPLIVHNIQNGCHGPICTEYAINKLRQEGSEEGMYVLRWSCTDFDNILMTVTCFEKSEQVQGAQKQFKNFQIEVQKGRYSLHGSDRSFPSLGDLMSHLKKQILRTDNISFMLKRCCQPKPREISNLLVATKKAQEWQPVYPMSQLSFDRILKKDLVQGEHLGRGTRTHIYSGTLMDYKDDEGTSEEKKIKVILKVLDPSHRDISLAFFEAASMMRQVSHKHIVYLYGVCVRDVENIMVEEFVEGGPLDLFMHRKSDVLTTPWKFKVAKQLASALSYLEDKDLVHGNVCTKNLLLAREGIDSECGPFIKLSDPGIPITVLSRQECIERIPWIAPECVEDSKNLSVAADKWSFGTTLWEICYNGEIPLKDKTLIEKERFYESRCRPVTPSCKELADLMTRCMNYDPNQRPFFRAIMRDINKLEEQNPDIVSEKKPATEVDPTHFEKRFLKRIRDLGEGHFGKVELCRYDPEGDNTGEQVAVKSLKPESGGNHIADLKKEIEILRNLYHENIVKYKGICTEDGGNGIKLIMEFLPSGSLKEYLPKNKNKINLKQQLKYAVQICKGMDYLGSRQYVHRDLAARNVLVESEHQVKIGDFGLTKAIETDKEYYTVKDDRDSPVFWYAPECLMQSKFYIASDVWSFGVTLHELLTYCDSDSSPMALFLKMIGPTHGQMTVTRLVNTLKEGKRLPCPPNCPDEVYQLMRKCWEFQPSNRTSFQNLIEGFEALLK
Sequence of JAK3 (P52333 whole entry, species assumed): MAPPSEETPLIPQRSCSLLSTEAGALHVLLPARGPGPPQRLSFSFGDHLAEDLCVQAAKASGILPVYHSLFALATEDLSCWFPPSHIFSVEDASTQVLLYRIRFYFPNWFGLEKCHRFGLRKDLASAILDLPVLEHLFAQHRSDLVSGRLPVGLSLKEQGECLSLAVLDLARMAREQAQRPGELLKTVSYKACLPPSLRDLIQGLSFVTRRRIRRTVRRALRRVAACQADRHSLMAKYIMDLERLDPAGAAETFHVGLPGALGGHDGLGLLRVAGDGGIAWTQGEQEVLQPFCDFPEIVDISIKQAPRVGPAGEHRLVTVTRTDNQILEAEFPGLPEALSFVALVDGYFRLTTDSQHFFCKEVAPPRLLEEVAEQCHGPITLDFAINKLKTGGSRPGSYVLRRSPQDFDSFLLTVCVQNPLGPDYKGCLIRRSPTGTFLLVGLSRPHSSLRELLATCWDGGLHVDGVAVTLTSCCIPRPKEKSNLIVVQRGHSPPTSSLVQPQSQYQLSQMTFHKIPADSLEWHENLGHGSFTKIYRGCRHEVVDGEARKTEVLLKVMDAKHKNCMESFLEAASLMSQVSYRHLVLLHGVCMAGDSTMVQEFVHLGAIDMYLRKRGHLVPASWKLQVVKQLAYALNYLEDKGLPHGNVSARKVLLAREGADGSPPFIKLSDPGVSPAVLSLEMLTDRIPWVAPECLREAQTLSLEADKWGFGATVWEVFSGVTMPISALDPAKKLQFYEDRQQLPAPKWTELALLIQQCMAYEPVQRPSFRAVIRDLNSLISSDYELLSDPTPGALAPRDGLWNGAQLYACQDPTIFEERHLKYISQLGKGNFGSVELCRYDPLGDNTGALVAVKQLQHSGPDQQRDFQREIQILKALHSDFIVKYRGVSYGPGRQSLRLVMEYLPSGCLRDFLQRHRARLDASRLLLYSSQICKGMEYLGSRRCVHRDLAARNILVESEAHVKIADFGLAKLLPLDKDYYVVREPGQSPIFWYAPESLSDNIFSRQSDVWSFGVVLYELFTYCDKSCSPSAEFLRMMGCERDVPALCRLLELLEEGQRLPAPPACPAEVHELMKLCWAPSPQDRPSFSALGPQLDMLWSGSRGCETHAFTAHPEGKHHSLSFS
Sequence of JAK2 (O60674 whole entry, species assumed): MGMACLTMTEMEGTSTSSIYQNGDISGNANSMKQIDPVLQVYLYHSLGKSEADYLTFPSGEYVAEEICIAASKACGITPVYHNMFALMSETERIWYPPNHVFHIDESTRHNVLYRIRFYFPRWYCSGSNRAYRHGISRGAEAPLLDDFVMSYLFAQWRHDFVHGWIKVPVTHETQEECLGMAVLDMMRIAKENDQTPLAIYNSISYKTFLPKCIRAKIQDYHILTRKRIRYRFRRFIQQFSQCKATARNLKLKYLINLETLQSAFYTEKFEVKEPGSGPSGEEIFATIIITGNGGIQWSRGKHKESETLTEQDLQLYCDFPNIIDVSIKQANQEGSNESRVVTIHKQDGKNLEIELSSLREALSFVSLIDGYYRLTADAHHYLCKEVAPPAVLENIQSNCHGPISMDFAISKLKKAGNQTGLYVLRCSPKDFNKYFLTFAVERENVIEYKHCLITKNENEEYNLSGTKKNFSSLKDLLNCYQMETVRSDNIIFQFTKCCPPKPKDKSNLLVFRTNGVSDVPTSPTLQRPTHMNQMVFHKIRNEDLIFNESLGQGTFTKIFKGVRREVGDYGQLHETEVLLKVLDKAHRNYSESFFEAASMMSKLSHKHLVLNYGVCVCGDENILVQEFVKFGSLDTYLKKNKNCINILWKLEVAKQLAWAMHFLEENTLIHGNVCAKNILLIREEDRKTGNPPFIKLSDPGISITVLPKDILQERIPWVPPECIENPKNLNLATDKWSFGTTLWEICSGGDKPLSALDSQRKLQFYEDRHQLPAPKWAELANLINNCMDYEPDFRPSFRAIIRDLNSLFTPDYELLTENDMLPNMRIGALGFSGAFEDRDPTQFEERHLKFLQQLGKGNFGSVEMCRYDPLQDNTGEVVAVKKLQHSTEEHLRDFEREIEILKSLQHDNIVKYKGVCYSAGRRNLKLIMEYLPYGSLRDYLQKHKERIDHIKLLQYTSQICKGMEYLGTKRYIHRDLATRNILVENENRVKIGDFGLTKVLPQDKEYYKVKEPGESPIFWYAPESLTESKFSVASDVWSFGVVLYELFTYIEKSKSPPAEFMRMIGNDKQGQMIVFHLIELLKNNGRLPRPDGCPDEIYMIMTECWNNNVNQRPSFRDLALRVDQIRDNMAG

The IC50 is the midpoint of a concentration-inhibition curve. A higher IC50 goes with weaker potency in that assay. Take `CCOC(=O)Cn1cc(Nc2ncc3ccn(C[C@@H](CC)C(C)C)c3n2)cn1` [Compound 135, ethyl (S)-2-(4-((7-(2-ethyl-3-methylbutyl)-7H-pyrrolo[2,3-d]pyrimidin-2-yl)amino)-1H-pyrazol-1-yl)acetate]: the IC50 against JAK1, on JAK2, on JAK3 and at TYK2 was less than 100 nM in each case.
Consider `CCOC(=O)C(C)n1cc(Nc2ncc3ccn(C[C@H]4CC[C@H](O)CC4)c3n2)cn1` (some centres unmarked) [Compound 120, ethyl 2-(4-((7-(((1r,4r)-4-hydroxycyclohexyl)methyl)-7H-pyrrolo[2,3-d]pyrimidin-2-yl)amino)-1H-pyrazol-1-yl)propanoate], for which the IC50 on JAK1, against JAK2, at JAK3 and on TYK2 was less than 100 nM in each case.
With `CCOC(=O)Cn1cc(Nc2ncc3ccn(C[C@H](CC)C(C)C)c3n2)cn1` [Compound 133, ethyl (R)-2-(4-((7-(2-ethyl-3-methylbutyl)-7H-pyrrolo[2,3-d]pyrimidin-2-yl)amino)-1H-pyrazol-1-yl)acetate], the IC50 at JAK1, against JAK2, against JAK3 and on TYK2 was less than 100 nM each time.
On to `CCOC(=O)Cn1cc(Nc2ncc3ccn(Cc4ccsc4)c3n2)cn1` [Compound 10, ethyl 2-(4-((7-(thiophen-3-ylmethyl)-7H-pyrrolo[2,3-d]pyrimidin-2-yl)amino)-1H-pyrazol-1-yl)acetate], for which the IC50 against JAK1, at JAK2, at JAK3 and on TYK2 was less than 100 nM in each case.
Turning to `CCC(Cn1ccc2cnc(Nc3cnn(CC(=O)O[C@H](C)CO)c3)nc21)C(C)C` (stereo partly drawn) [Compound 106, (R)-1-hydroxypropan-2-yl 2-(4-((7-(2-ethyl-3-methylbutyl)-7H-pyrrolo[2,3-d]pyrimidin-2-yl)amino)-1H-pyrazol-1-yl)acetate], the IC50 against JAK1, against JAK2, on JAK3 and at TYK2 was less than 100 nM in each case.
In the case of `CCOC(=O)Cn1cc(Nc2ncc3ccn(CC=C(C)C)c3n2)cn1` [Compound 22, ethyl 2-(4-((7-(3-methylbut-2-en-1-yl)-7H-pyrrolo[2,3-d]pyrimidin-2-yl)amino)-1H-pyrazol-1-yl)acetate], the IC50 was 100 to 1000 nM at JAK1, less than 100 nM against JAK2, less than 100 nM against JAK3 and less than 100 nM on TYK2.
As to `CCOC(=O)Cn1cc(Nc2ncc3ccn(CCC4CCCCC4)c3n2)cn1` [Compound 18, ethyl 2-(4-((7-(2-cyclohexylethyl)-7H-pyrrolo[2,3-d]pyrimidin-2-yl)amino)-1H-pyrazol-1-yl)acetate], the IC50 on JAK1 was more than 10000 nM; at JAK2, 100 to 1000 nM; at JAK3 it was less than 100 nM; at TYK2, less than 100 nM.
With `CCOC(=O)CCn1cc(Nc2ncc3ccn(CC(CC)C(C)C)c3n2)cn1` (centres unmarked) [Compound 30, ethyl 3-(4-((7-(2-ethyl-3-methylbutyl)-7H-pyrrolo[2,3-d]pyrimidin-2-yl)amino)-1H-pyrazol-1-yl)propanoate], the IC50 on JAK1, against JAK2, against JAK3 and against TYK2 was less than 100 nM each time.
As for `CCCCOC(=O)Cn1cc(Nc2ncc3ccn(CC(CC)C(C)C)c3n2)cn1` (centres unmarked) [Compound 84, butyl 2-(4-((7-(2-ethyl-3-methylbutyl)-7H-pyrrolo[2,3-d]pyrimidin-2-yl)amino)-1H-pyrazol-1-yl)acetate], the IC50 against JAK1, against JAK2, against JAK3 and against TYK2 was less than 100 nM throughout.
Turning to `CC[C@H](Cn1ccc2cnc(Nc3cnn(CCC(=O)O)c3)nc21)C(C)C` [Compound 115, (S)-3-(4-((7-(2-ethyl-3-methylbutyl)-7H-pyrrolo[2,3-d]pyrimidin-2-yl)amino)-1H-pyrazol-1-yl)propanoic acid], the IC50 against JAK1, on JAK2, on JAK3 and against TYK2 was less than 100 nM each time.
Regarding `CC(C)OC(=O)Cn1cc(Nc2ncc3ccn(CC(C(C)C)C(C)C)c3n2)cn1` [Compound 94, isopropyl 2-(4-((7-(2-isopropyl-3-methylbutyl)-7H-pyrrolo[2,3-d]pyrimidin-2-yl)amino)-1H-pyrazol-1-yl)acetate], the IC50 against JAK1, at JAK2, at JAK3 and against TYK2 was less than 100 nM each time.
`CCOC(=O)Cn1cc(Nc2ncc3ccn(CC4CCCCC4C)c3n2)cn1` (centres unmarked) [Compound 42, ethyl 2-(4-((7-((2-methylcyclohexyl)methyl)-7H-pyrrolo[2,3-d]pyrimidin-2-yl)amino)-1H-pyrazol-1-yl)acetate]: the IC50 on JAK1, against JAK2, against JAK3 and on TYK2 was less than 100 nM throughout.
As for `CCOCCOC(=O)Cn1cc(Nc2ncc3ccn(CC(CC)C(C)C)c3n2)cn1` (centres unmarked) [Compound 86, 2-ethoxyethyl 2-(4-((7-(2-ethyl-3-methylbutyl)-7H-pyrrolo[2,3-d]pyrimidin-2-yl)amino)-1H-pyrazol-1-yl)acetate], the IC50 against JAK1, at JAK2, on JAK3 and on TYK2 was less than 100 nM each time.
`CCOC(=O)Cn1cc(Nc2ncc3ccn(C[C@@H]4C[C@@H]5C[C@@H]5C4)c3n2)cn1` [Compound 48, ethyl 2-(4-((7-(((1R,3r,5S)-bicyclo[3.1.0]hexan-3-yl)methyl)-7H-pyrrolo[2,3-d]pyrimidin-2-yl)amino)-1H-pyrazol-1-yl)acetate]: the IC50 against JAK1, against JAK2, against JAK3 and against TYK2 was less than 100 nM throughout.
Consider `CCOC(=O)Cn1cc(Nc2ncc3ccn(C[C@H]4CC[C@H](OC)CC4)c3n2)cn1` [Compound 129, ethyl 2-(4-((7-(((1r,4r)-4-methoxycyclohexyl)methyl)-7H-pyrrolo[2,3-d]pyrimidin-2-yl)amino)-1H-pyrazol-1-yl)acetate], for which the IC50 at JAK1 is 100 to 1000 nM; against JAK2, less than 100 nM; at JAK3, less than 100 nM; on TYK2, less than 100 nM.
On to `CCOC(=O)Cn1cc(Nc2ncc3ccn(C[C@H]4CC[C@@H](O)CC4)c3n2)cn1` [Compound 52, ethyl 2-(4-((7-(((1s,4s)-4-hydroxycyclohexyl)methyl)-7H-pyrrolo[2,3-d]pyrimidin-2-yl)amino)-1H-pyrazol-1-yl)acetate], for which the IC50 against JAK1 was 100 to 1000 nM; against JAK2 it was less than 100 nM; against JAK3, less than 100 nM; at TYK2 it was less than 100 nM.
On to `CC[C@H](Cn1ccc2cnc(Nc3cnn(CC(=O)OC4COC4)c3)nc21)C(C)C` [Compound 140, oxetan-3-yl (S)-2-(4-((7-(2-ethyl-3-methylbutyl)-7H-pyrrolo[2,3-d]pyrimidin-2-yl)amino)-1H-pyrazol-1-yl)acetate], for which the IC50 at JAK1, against JAK2, on JAK3 and against TYK2 was less than 100 nM each time.
